Measured values published in US20170045513A1, “METHODS OF DIAGNOSING CELIAC DISEASE USING IP-10” (ImmusanT, Inc., priority 2014, published 2017).
Non-standard residues stand in square brackets, D forms with d. pGlu = O=C1CC[C@@H](C(=O)O)N1

How the values were obtained:
Format in all cases: cell-based, human
[1] = test system: gluten-reactive T cells; test: 96-well plate whole blood cytokine release, IFNγ by MAGPIX multiplex bead assay; conditions: for Percent of maximal response to individual gluten peptides, IFNg: after oral gluten challenge; for IFNγ WB MAGPIX % max Mean: n = 8, blood after oral gluten challenge, individual peptides 5 μM (Peptide 2* of P14, Pepscan: 10 μg/mL (5.45 μM))
[2] = test system: gluten-reactive T cells; test: Overnight IFNγ ELISpot assay with fresh PBMC; conditions: for Percent of maximal response to individual gluten peptides, ELISp: after oral gluten challenge; for IFNγ ELISpot % max Mean: n = 5, blood after oral gluten challenge, individual peptides 5 μM (Peptide 2* of P14, Pepscan: 10 μg/mL (5.45 μM))
Summary of the method: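 Read-out is IFNγ spot-forming units per well, counted automatically after overnight culture of fresh PBMC (0.4 million/well) with single peptides (duplicate) or pools (triplicate). Donors: HLA-DQ2.5+ celiac patients on gluten-free diet, bled pre- and day 6 after 3-day oral gluten challenge.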

[3] = test system: gluten-reactive T cells; test: Cytokine release assays taken together (IFNγ ELISpot, whole blood IFNγ and IP-10, in-tube IFNγ ELISA); conditions: for activity relative to Peptide 14 in the cytokine release assays: blood collected after oral gluten challenge; for cytokine release / immunogenicity of individual peptide: HLA-DQ2.5+ celiac disease subjects after gluten challenge
Summary of the method: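 Whole blood with peptides (P3 0.05-50 μg/mL; P13/P14 0.025-25 μM; […]), 24 h, 37 °C; plasma IFNγ/IP-10 by multiplex beads. Tube assay: 1 mL blood with P3 or CEF, 24 h, plasma IFNγ ELISA; elevated if >7.2 pg/mL above medium tube and SI >1.25. ELISpot overnight on fresh PBMC.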

Substance	Percent of maximal response to individual gluten peptides, IFNg ([1]; Subject 2, Max. 116 pg/mL)	Percent of maximal response to individual gluten peptides, IFNg ([1]; Subject 3, Max. 799 pg/mL)	Percent of maximal response to individual gluten peptides, IFNg ([1]; Subject 4, Max. 136 pg/mL)	Percent of maximal response to individual gluten peptides, IFNg ([1]; Subject 6, Max. 72 pg/mL)	Percent of maximal response to individual gluten peptides, IFNg ([1]; Subject 7, Max. 17 pg/mL)	Percent of maximal response to individual gluten peptides, IFNg ([1]; Subject 8, Max. 47 pg/mL)	Percent of maximal response to individual gluten peptides, IFNg ([1]; Subject 9, Max. 67 pg/mL)	Percent of maximal response to individual gluten peptides, IFNg ([1]; Subject 10, Max. 229 pg/mL)	IFNγ WB MAGPIX % max Mean [1]	Percent of maximal response to individual gluten peptides, ELISp ([2]; Subject 3, Max. 18 SFU)	Percent of maximal response to individual gluten peptides, ELISp ([2]; Subject 4, Max. 36 SFU)	Percent of maximal response to individual gluten peptides, ELISp ([2]; Subject 6, Max. 16 SFU)	Percent of maximal response to individual gluten peptides, ELISp ([2]; Subject 8, Max. 17 SFU)	Percent of maximal response to individual gluten peptides, ELISp ([2]; Subject 10, Max. 11 SFU)	IFNγ ELISpot % max Mean [2] [% max]	activity relative to Peptide 14 in the cytokine release assays [3]	cytokine release / immunogenicity of individual peptide [3]
(pE)QPFPQPELPYPYPQ-amide ([pGlu]QPFPQPELPYPYPQ-NH2; SMILES CC(C)C[C@H](NC(=O)[C@H](CCC(=O)O)NC(=O)[C@@H]1CCCN1C(=O)[C@H](CCC(N)=O)NC(=O)[C@@H]1CCCN1C(=O)[C@H](Cc1ccccc1)NC(=O)[C@@H]1CCCN1C(=O)[C@H](CCC(N)=O)NC(=O)[C@@H]1CCC(=O)N1)C(=O)N1CCC[C@H]1C(=O)N[C@@H](Cc1ccc(O)cc1)C(=O)N1CCC[C@H]1C(=O)N[C@@H](Cc1ccc(O)cc1)C(=O)N1CCC[C@H]1C(=O)N[C@@H](CCC(N)=O)C(N)=O) [Peptide 16]	65 % of max	13 % of max	16 % of max	10 % of max	100 % of max	0 % of max	39 % of max	2 % of max	31 % max	22 % of max	31 % of max	19 % of max	24 % of max	27 % of max	24	no more than two-thirds as active as Peptide 14	–
(pE)QPFPQPEQPFPLQPEQP-amide ([pGlu]QPFPQPEQPFPLQPEQP-NH2; SMILES CC(C)C[C@H](NC(=O)[C@@H]1CCCN1C(=O)[C@H](Cc1ccccc1)NC(=O)[C@@H]1CCCN1C(=O)[C@H](CCC(N)=O)NC(=O)[C@H](CCC(=O)O)NC(=O)[C@@H]1CCCN1C(=O)[C@H](CCC(N)=O)NC(=O)[C@@H]1CCCN1C(=O)[C@H](Cc1ccccc1)NC(=O)[C@@H]1CCCN1C(=O)[C@H](CCC(N)=O)NC(=O)[C@@H]1CCC(=O)N1)C(=O)N[C@@H](CCC(N)=O)C(=O)N1CCC[C@H]1C(=O)N[C@@H](CCC(=O)O)C(=O)N[C@@H](CCC(N)=O)C(=O)N1CCC[C@H]1C(N)=O) [Peptide 6]	58 % of max	10 % of max	54 % of max	4 % of max	2 % of max	6 % of max	69 % of max	20 % of max	28 % max	11 % of max	56 % of max	31 % of max	0 % of max	9 % of max	21	approximately one-half to one-fifth as active as Peptide 14	–
(pE)QPFPQPEQPFSQQ-amide ([pGlu]QPFPQPEQPFSQQ-NH2; SMILES NC(=O)CC[C@H](NC(=O)[C@H](CCC(N)=O)NC(=O)[C@H](CO)NC(=O)[C@H](Cc1ccccc1)NC(=O)[C@@H]1CCCN1C(=O)[C@H](CCC(N)=O)NC(=O)[C@H](CCC(=O)O)NC(=O)[C@@H]1CCCN1C(=O)[C@H](CCC(N)=O)NC(=O)[C@@H]1CCCN1C(=O)[C@H](Cc1ccccc1)NC(=O)[C@@H]1CCCN1C(=O)[C@H](CCC(N)=O)NC(=O)[C@@H]1CCC(=O)N1)C(N)=O) [Peptide 7]	60 % of max	2 % of max	8 % of max	0 % of max	0 % of max	0 % of max	0 % of max	1 % of max	9 % max	0 % of max	11 % of max	6 % of max	0 % of max	9 % of max	5	–	weak or absent
(pE)QPFPQPEQPIPVQPEQS-amide ([pGlu]QPFPQPEQPIPVQPEQS-NH2; SMILES CC[C@H](C)[C@H](NC(=O)[C@@H]1CCCN1C(=O)[C@H](CCC(N)=O)NC(=O)[C@H](CCC(=O)O)NC(=O)[C@@H]1CCCN1C(=O)[C@H](CCC(N)=O)NC(=O)[C@@H]1CCCN1C(=O)[C@H](Cc1ccccc1)NC(=O)[C@@H]1CCCN1C(=O)[C@H](CCC(N)=O)NC(=O)[C@@H]1CCC(=O)N1)C(=O)N1CCC[C@H]1C(=O)N[C@H](C(=O)N[C@@H](CCC(N)=O)C(=O)N1CCC[C@H]1C(=O)N[C@@H](CCC(=O)O)C(=O)N[C@@H](CCC(N)=O)C(=O)N[C@@H](CO)C(N)=O)C(C)C) [Peptide 4]	33 % of max	13 % of max	24 % of max	1 % of max	1 % of max	9 % of max	29 % of max	11 % of max	15 % max	17 % of max	44 % of max	19 % of max	12 % of max	27 % of max	24	from one-half to one-eighth as active as Peptide 14	–
(pE)QPFPQPEQPTPIQPEQP-amide ([pGlu]QPFPQPEQPTPIQPEQP-NH2; SMILES CC[C@H](C)[C@H](NC(=O)[C@@H]1CCCN1C(=O)[C@@H](NC(=O)[C@@H]1CCCN1C(=O)[C@H](CCC(N)=O)NC(=O)[C@H](CCC(=O)O)NC(=O)[C@@H]1CCCN1C(=O)[C@H](CCC(N)=O)NC(=O)[C@@H]1CCCN1C(=O)[C@H](Cc1ccccc1)NC(=O)[C@@H]1CCCN1C(=O)[C@H](CCC(N)=O)NC(=O)[C@@H]1CCC(=O)N1)[C@@H](C)O)C(=O)N[C@@H](CCC(N)=O)C(=O)N1CCC[C@H]1C(=O)N[C@@H](CCC(=O)O)C(=O)N[C@@H](CCC(N)=O)C(=O)N1CCC[C@H]1C(N)=O) [Peptide 5]	39 % of max	5 % of max	13 % of max	1 % of max	6 % of max	0 % of max	0 % of max	27 % of max	11 (11) % max	17 % of max	19 % of max	0 % of max	18 % of max	55 % of max	22	from one-half to one-eighth as active as Peptide 14	–
(pE)QPPFSEQEQPVLPQ-amide (N-terminal pyroglutamate; C-terminal amide) [Peptide 13]	47 % of max	3 % of max	0 % of max	5 % of max	1 % of max	0 % of max	0 % of max	0 % of max	7 % max	6 % of max	6 % of max	0 % of max	0 % of max	0 % of max	2	–	weak or not distinguishable from medium alone
